Test results as given in patent US20120010266A1, “TBC1D7 AS TUMOR MARKER AND THERAPEUTIC TARGET FOR CANCER” (Oncotherapy Science Inc.,, priority 2008, published 2012).
Where two headings read alike, the source gives them in different places. One block for each molecule: values may come before it. No end group written: not given here.

Assays:
TBC1D7 = assay: RNA interference assay: knockdown of TBC1D7 expression, semiquantitative RT-PCR; assay type: cell-based, human; conditions: LC319 and A549 cells; siRNA duplexes 100 nM transfected; versus control siRNAs (si-EGFP, si-LUC)
Method: Total RNA was extracted from cultured cells and clinical tissues using Trizol reagent (Life Technologies, Inc.) according to the manufacturer's protocol. Extracted RNAs were treated with DNase I (Nippon Gene) and reversely-transcribed using oligo (dT) primer and SuperScript II reverse transcriptase (Invitrogen). […]
(§1) Small interfering RNA (siRNA) duplexes (Dharmacon, Inc.) (100 nM) were transfected into a NSCLC cell line, A549 and esophageal cancer cell line, TE9, using 24 of Lipofectamine 2000 (Invitrogen) following the manufacturer's protocol. The transfected cells were cultured for 7 days, and the number of colonies was counted by Giemsa staining, and viability of cells was evaluated by 3-(4,5-dimethylthiazol-2-yl)-2,5-diphenyltetrazolium bromide (MTT) assay (cell counting kit-8 solution; Dojindo Laboratories), at 7 days after transfection. […]
as §1, with “duplexes” for “duplexes (Dharmacon, Inc.)”, “LC319,” for “esophageal cancer cell line, TE9,”, “24 microL” for “24”

[1] = system: LC319 and A549 cell lines; assay: MTT assay of lung cancer cells transfected with siRNAs against TBC1D7; assay type: cell-based, human; conditions: 7 days after transfection, siRNA 100 nM
Method: as §1, with “transfection. To confirm suppression of TBC1D7 expression, semiquantitative RT-PCR was carried out with synthesized primers specific for TBC1D7 described above. SiRNA duplexes against human TBC1D7, si-TBC1D7-#1: siGenome duplexes 1 [D-021140-01: […]] (SEQ ID NO: 3 for target sequence SEQ ID NO.: 18) and si-TBC1D7-#2: siGenome duplexes 4 [D-021140-4: […]]” for “transfection.”
as §1, with “duplexes” for “duplexes (Dharmacon, Inc.)”, “LC319,” for “esophageal cancer cell line, TE9,”, “24 microL” for “24”

[2] = system: LC319 and A549 cell lines; assay: Colony formation assay (Giemsa staining) of lung cancer cells transfected with siRNAs against TBC1D7; assay type: cell-based, human; conditions: cultured 7 days after transfection, siRNA 100 nM
Method: as §1, with “transfection. To confirm suppression of TBC1D7 expression, semiquantitative RT-PCR was carried out with synthesized primers specific for TBC1D7 described above. SiRNA duplexes against human TBC1D7, si-TBC1D7-#1: siGenome duplexes 1 [D-021140-01: […]] (SEQ ID NO: 3 for target sequence SEQ ID NO.: 18) and si-TBC1D7-#2: siGenome duplexes 4 [D-021140-4: […]]” for “transfection.”
as §1, with “duplexes” for “duplexes (Dharmacon, Inc.)”, “LC319,” for “esophageal cancer cell line, TE9,”, “24 microL” for “24”

lung cancer LC319 cells [3] = assay: Dominant-negative peptide assay, MTT, LC319 cells; assay type: cell-based, human; conditions: peptide 10, 15 or 20 microM for 3 days
Description: (§2) Twenty-amino-acid sequence derived from minimized TSC1-binding domain in TBC1D7 (codons 112-171; see FIG. 5B) was covalently linked at its N-terminus to a membrane transducing 11 poly-arginine sequence (11R) as described elsewhere (Hayama S, Daigo Y, Kato T, et al. Cancer Res 2006; 66:10339-48, Hayama S, Daigo Y, Yamabuki T, et al. Cancer Res 2007; 67:4113-22). Three dominant-negative peptides were synthesized covering the codons 112-171 region: 11R-TBC112-131, RRRRRRRRRRR-GGG-[…] (SEQ ID NO.:23); 11R-TBC132-151, RRRRRRRRRRR-GGG-[…] (SEQ ID NO.:24); 11R-TBC152-171 RRRRRRRRRRR-GGG-[…] (SEQ ID NO.:25). Peptides were purified by preparative reverse-phase high-performance liquid chromatography to make >95% purity. […] The viability of cells was evaluated by MTT assay at 3 days after the treatment.

[4] = system: normal human lung fibroblast-derived CCD19Lu cells; assay type: cell-based; conditions: CCD19Lu cells in which TBC1D7 expression was hardly detectable, peptide 10, 15 or 20 microM for 3 days
Description: as §2

lung cancer LC319 cells [5] = assay: Flow cytometric cell cycle analysis after si-TBC1D7 transfection; assay type: cell-based, human; conditions: 48 to 96 hours after transfection
Method: Cells were collected in PBS, and fixed in 70% cold ethanol for 30 minutes. After treatment with 100 micro g/mL RNase (Sigma/Aldrich, St. Louis, Mo.), the cells were stained with 50 micro g/mL propidium iodide (Sigma/Aldrich, St. Louis, Mo.) in PBS. Flow cytometry was done on a Becton Dickinson FACScan and analyzed by ModFit software (Verity Software House, Inc., Topsham, Me.). The cells selected from at least 10,000 ungated cells were analyzed for DNA content.

[6] = target: T1, endogenous TSC1 protein (human, lung cancer LC319 cells) (human, UniProt Q92574 1-1164, limits assumed); assay: summary of the immunoprecipitation results in the discussion
T1 construct: Endogenous protein in LC319 cell extracts
T1 sequence: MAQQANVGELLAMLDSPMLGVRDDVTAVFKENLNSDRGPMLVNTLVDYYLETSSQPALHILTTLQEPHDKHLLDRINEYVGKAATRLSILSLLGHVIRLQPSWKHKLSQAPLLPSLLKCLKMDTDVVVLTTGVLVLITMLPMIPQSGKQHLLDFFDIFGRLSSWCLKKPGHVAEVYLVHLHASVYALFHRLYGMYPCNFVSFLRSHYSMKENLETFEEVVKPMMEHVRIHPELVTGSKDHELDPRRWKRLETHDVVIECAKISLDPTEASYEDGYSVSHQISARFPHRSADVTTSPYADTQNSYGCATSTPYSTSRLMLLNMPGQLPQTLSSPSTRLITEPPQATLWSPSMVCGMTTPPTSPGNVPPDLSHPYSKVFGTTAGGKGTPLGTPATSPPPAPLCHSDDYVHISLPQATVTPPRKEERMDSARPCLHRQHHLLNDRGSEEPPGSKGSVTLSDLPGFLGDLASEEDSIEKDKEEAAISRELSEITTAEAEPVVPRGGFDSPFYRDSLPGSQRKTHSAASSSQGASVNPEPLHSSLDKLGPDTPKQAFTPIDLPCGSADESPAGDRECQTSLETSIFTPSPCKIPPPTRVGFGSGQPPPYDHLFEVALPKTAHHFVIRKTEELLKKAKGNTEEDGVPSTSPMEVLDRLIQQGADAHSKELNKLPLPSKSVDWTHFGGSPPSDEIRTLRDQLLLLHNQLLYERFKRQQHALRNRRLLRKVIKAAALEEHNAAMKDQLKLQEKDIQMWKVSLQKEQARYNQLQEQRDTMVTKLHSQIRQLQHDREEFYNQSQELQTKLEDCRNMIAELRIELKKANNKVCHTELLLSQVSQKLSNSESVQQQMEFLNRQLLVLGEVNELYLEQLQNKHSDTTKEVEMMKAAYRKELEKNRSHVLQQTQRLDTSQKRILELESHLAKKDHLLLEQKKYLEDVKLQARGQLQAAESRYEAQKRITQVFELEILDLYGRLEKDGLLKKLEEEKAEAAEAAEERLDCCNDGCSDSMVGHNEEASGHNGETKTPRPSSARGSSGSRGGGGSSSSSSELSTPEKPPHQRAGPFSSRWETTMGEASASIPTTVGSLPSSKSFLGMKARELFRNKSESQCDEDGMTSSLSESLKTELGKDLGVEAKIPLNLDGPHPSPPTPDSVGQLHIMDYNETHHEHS

[7] = target: T1, endogenous TSC1 protein (human, lung …); assay: immunoprecipitation experiments using LC319 cells, as the legend of FIG. 5A says
Description: FIG. 5 depicts identification of TSC1-interacting region in TBC1D7 and inhibition of growth of lung cancer cells by dominant-negative peptides of TBC1D7. A, Left panel, Schematic drawing of six N-terminal Flag-tagged TBC1D7 partial protein constructs lacking either or both of the terminal regions. Right panels, Identification of the region in TBC1D7 that binds to TSC1 by immunoprecipitation experiments using LC319 cells. The TBC1D7₁₁₂₋₁₇₁ construct, which corresponds to a center region in TBC domain, was indicated to be TSC1-interacting region. B, Left top panel, Schematic drawing of three cell permeable peptides of TBC1D7 covering TBC1D7₁₁₂₋₁₇₁ that corresponds to the TSC1-interacting region in TBC1D7. B, Right top panels, Reduction of the complex formation between endogenous TSC1 and endogenous TBC1D7 proteins, detected by immunoprecipitation assay in LC319 cells that were treated with the 11R-TBC₁₅₂₋₁₇₁ peptides. C, MTT assay showing growth suppressive effect of 11R-TBC₁₅₂₋₁₇₁ peptides that were introduced into LC319 cells that expressed both TBC1D7 and TSC1 proteins. Bars, SD of triplicate assays. D, Left panels, Expressions of TBC1D7 and TSC1 proteins in lung cancer cell line LC319 and normal human lung fibroblast-derived CCD19Lu cells, examined by western blot analysis. […]

Molecule: si-TBC1D7-#2: siRNA duplex against human TBC1D7, GAUAAAGUUGUGAGUGGAUUU (SEQ ID NO: 4, target SEQ ID NO: 19), purchased from Dharmacon (chemistry not given here)
- knockdown effect on TBC1D7 expression (RT-PCR) (TBC1D7): knockdown effect was confirmed
- number / viability of cells, MTT assay (cell growth) [1]: drastic reduction in the number of cells
- number of cells / colonies, colony-formation assay [2]: drastic reduction in the number of cells

Molecule: RRRRRRRRRRR-GGG-YQLESGKLPRSPSFPLEPDD (RRRRRRRRRRRGGGYQLESGKLPRSPSFPLEPDD; a dominant-negative peptide) [11R-TBC1D7112-131]
- cell viability / cell growth, MTT assay (lung cancer LC319 cells [3]): no effect on cell growth

Molecule: RRRRRRRRRRR-GGG-EVFLAIAKAMEEMVEDSVDC (RRRRRRRRRRRGGGEVFLAIAKAMEEMVEDSVDC; a dominant-negative peptide) [11R-TBC1D7132-151]
- cell viability / cell growth, MTT assay (lung cancer LC319 cells [3]): no effect on cell growth

Molecule: RRRRRRRRRRRGGGYWITRRFVNQLNTKYRDSLP [11R-TBC1D7152-171]
- cell viability of normal cells (off-target toxic effect), MTT assay [4]: no effect on cell viability
- cell viability of normal cells (off-target toxic effect), MTT assay ([4]; listed as 11R-TBC152-171): no off-target effect

Molecule: si-TBC1D7-#1: siRNA duplex against human TBC1D7, GAACAGUGCAGAGAAGAUAUU (SEQ ID NO: 3, target SEQ ID NO: 18), purchased from Dharmacon (chemistry not given here)
- knockdown effect on TBC1D7 expression (RT-PCR) (TBC1D7): knockdown effect was confirmed
- number / viability of cells, MTT assay (cell growth) [1]: drastic reduction in the number of cells
- number of cells / colonies, colony-formation assay [2]: drastic reduction in the number of cells
- number of cells in S phase (lung cancer LC319 cells [5]): continuously decreased
- proportion of the cells in G2/M phase (lung cancer LC319 cells [5]): increased

- binding result [6]: binds
B1: endogenous TBC1D7 protein (human, lung cancer LC319 cells) (other)
chain: MTEDSQRNFRSVYYEKVGFRGVEEKKSLEILLKDDRLDTEKLCTFSQRFPLPSMYRALVWKVLLGILPPHHESHAKVMMYRKEQYLDVLHALKVVRFVSDATPQAEVYLRMYQLESGKLPRSPSFPLEPDDEVFLAIAKAMEEMVEDSVDCYWITRRFVNQLNTKYRDSLPQLPKAFEQYLNLEDGRLLTHLRMCSAAPKLPYDLWFKRCFAGCLPESSLQRVWDKVVSGSCKILVFVAVEILLTFKIKVMALNSAEKITKFLENIPQDSSDAIVSKAIDLWHKHCGTPVHSS
notes: Endogenous protein in cell extracts; also called TBC1 domain family, member 7

- binding result [7]: binds
B2: TBC112-171, N-terminal Flag-tagged TBC1D7 partial protein construct (other, not shown: small tags and cut ends)
chain: YQLESGKLPRSPSFPLEPDDEVFLAIAKAMEEMVEDSVDCYWITRRFVNQLNTKYRDSLP
